Assay results as given in patent US10278984B2, “Guanosine as an immune potentiator mediated through toll receptors” (Nitor Therapeutics, priority 2014, dated 2019).

Columns and labels:
B16 tumors = experiment: Mouse melanoma model, NTR001 and cyclophosphamide; type: in vivo, C57BL/6 mice; conditions: cyclophosphamide 100 mg/kg IP single dose
Protocol: Method: Cancer cells were injected subcutaneously in right flank of each mouse, 1×10^4 cells in 0.1 ml PBS with 20% Matrigel. Treatment with the NTR001 was initiated on day 6 after injection of tumor cells. Tumor volume and survival were recorded every 3-4 days.

human TLR9 = target: T1, human TLR9 (Homo sapiens, UniProt Q9NR96); experiment: TLR ligand screening: NF-κB SEAP reporter, agonist; type: cell-based; conditions: HEK293 cells expressing TLR9; NTR001 10 uM, inosine 100 uM
T1 construct: expressed in transfected cells; host or cells: HEK293
T1 sequence (Q9NR96 26-1032): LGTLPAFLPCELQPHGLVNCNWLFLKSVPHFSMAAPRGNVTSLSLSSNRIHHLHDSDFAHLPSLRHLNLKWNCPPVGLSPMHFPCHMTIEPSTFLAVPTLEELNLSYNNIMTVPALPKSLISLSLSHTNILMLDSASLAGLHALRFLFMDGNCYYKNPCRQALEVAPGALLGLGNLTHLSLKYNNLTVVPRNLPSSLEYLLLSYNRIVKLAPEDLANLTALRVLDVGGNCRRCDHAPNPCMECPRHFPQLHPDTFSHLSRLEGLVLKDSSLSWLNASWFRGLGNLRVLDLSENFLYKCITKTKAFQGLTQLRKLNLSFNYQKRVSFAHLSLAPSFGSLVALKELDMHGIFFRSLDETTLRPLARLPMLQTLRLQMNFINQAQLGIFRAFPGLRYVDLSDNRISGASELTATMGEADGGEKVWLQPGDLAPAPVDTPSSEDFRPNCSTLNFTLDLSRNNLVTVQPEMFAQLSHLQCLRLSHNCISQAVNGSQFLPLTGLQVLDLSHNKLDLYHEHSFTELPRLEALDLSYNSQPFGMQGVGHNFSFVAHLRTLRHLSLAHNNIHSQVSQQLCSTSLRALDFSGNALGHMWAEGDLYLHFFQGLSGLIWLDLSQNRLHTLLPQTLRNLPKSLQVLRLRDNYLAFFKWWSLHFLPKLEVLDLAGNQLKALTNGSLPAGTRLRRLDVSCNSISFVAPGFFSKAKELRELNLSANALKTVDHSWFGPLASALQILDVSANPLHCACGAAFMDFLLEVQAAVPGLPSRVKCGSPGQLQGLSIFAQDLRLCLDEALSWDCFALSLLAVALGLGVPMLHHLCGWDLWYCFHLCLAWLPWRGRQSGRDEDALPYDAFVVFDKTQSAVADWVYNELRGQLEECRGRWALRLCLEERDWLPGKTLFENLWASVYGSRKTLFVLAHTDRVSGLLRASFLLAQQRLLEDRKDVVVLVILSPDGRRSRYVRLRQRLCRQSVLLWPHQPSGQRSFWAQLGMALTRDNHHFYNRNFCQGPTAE
Protocol: (§1) Method: TLR stimulation is tested by assessing NF-κB activation in HEK293 cells expressing a given TLR. The Secreted Embryonic Alkaline Phosphatase (SEAP) reporter is under the control of a promoter inducible by the transcription factor NF-κB. This reporter gene allows the monitoring of signaling through the TLR based on the activation of NF-κB. The activity of the compounds is tested on seven different human TLRs (TLR2, 3, 4, 5, 7, 8 and 9) as a potential agonist. The compounds are evaluated at one concentration and compared to control ligands. This step is performed in triplicate.

human TLR8 = target: T2, human TLR8 (Homo sapiens, UniProt Q9NR97); experiment: TLR ligand screening: NF-κB SEAP reporter, agonist; type: cell-based; conditions: HEK293 cells expressing TLR8; NTR001 10 uM, inosine 100 uM
T2 construct: expressed in transfected cells; host or cells: HEK293
T2 sequence (Q9NR97 27-1041): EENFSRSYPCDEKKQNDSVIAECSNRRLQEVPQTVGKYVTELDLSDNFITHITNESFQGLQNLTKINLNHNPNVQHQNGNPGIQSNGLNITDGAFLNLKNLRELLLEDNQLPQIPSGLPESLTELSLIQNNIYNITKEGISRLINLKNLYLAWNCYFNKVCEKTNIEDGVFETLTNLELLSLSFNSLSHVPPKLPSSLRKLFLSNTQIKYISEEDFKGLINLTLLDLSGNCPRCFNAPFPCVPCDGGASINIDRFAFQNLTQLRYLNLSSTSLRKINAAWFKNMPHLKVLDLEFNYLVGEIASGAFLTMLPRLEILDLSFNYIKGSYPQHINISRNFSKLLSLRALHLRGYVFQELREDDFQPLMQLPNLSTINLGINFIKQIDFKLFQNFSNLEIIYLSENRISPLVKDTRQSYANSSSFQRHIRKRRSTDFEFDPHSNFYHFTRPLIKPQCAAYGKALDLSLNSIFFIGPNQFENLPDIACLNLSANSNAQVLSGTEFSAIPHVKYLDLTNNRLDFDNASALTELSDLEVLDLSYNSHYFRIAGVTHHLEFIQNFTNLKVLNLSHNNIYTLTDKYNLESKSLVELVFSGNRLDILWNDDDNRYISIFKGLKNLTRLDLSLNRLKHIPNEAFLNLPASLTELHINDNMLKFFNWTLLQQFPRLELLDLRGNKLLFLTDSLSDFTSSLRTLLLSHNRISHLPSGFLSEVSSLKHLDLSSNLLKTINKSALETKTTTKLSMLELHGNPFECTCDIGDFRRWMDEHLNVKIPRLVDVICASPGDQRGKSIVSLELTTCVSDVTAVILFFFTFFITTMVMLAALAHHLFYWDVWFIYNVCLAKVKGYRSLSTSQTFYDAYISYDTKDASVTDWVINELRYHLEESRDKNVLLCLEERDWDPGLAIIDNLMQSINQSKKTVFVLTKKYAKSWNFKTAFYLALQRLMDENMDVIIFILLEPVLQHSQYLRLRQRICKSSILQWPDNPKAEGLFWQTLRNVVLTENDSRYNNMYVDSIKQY
Protocol: as §1

human TLR2 = target: T3, human TLR2 (Homo sapiens, UniProt O60603); experiment: TLR ligand screening: NF-κB SEAP reporter, agonist; type: cell-based; conditions: HEK293 cells expressing TLR2; guanosine 100 uM, NTR001 10 uM, inosine 100 uM; triplicate
T3 construct: expressed in transfected cells; host or cells: HEK293
Protocol: as §1

human TLR5 = target: T4, human TLR5 (Homo sapiens, UniProt O60602); experiment: TLR ligand screening: NF-κB SEAP reporter, agonist; type: cell-based; conditions: HEK293 cells expressing TLR5; NTR001 10 uM, inosine 100 uM
T4 construct: expressed in transfected cells; host or cells: HEK293
Protocol: as §1

human TLR7 = target: T5, human TLR7 (Homo sapiens, UniProt Q9NYK1); experiment: TLR ligand screening: NF-κB SEAP reporter, agonist; type: cell-based; conditions: HEK293 cells expressing TLR7; NTR001 10 uM, inosine 100 uM
T5 construct: expressed in transfected cells; host or cells: HEK293
T5 sequence (Q9NYK1 27-1049): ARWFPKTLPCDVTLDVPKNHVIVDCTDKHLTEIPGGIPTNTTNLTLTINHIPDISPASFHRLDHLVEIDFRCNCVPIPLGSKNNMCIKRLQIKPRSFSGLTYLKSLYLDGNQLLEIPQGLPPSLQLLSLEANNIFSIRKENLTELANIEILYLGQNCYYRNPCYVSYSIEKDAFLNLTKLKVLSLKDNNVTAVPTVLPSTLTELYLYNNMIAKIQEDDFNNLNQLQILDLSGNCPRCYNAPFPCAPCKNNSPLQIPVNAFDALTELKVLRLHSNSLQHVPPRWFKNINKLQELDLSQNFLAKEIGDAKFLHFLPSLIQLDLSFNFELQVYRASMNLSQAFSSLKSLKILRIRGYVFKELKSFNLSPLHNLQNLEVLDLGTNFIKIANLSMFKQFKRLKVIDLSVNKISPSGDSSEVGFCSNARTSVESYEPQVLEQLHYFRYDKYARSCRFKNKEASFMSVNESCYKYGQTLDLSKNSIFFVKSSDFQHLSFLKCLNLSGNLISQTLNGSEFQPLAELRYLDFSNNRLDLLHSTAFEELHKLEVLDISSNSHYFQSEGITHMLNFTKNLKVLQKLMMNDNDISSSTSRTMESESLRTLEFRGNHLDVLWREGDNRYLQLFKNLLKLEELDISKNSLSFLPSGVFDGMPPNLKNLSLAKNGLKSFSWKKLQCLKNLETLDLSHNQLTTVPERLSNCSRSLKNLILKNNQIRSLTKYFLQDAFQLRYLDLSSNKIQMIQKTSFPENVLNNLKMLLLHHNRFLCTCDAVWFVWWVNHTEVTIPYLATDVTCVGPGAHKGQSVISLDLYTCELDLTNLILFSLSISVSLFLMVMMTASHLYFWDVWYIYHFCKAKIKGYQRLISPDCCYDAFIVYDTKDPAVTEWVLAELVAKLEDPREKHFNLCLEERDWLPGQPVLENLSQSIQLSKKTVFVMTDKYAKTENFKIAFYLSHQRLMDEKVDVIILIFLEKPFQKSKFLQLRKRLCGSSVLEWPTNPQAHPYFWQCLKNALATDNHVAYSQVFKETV
Protocol: as §1

human TLR3 = target: T6, human TLR3 (Homo sapiens, UniProt O15455); experiment: TLR ligand screening: NF-κB SEAP reporter, agonist; type: cell-based; conditions: HEK293 cells expressing TLR3; NTR001 10 uM, inosine 100 uM
T6 construct: expressed in transfected cells; host or cells: HEK293
T6 sequence (O15455 24-904): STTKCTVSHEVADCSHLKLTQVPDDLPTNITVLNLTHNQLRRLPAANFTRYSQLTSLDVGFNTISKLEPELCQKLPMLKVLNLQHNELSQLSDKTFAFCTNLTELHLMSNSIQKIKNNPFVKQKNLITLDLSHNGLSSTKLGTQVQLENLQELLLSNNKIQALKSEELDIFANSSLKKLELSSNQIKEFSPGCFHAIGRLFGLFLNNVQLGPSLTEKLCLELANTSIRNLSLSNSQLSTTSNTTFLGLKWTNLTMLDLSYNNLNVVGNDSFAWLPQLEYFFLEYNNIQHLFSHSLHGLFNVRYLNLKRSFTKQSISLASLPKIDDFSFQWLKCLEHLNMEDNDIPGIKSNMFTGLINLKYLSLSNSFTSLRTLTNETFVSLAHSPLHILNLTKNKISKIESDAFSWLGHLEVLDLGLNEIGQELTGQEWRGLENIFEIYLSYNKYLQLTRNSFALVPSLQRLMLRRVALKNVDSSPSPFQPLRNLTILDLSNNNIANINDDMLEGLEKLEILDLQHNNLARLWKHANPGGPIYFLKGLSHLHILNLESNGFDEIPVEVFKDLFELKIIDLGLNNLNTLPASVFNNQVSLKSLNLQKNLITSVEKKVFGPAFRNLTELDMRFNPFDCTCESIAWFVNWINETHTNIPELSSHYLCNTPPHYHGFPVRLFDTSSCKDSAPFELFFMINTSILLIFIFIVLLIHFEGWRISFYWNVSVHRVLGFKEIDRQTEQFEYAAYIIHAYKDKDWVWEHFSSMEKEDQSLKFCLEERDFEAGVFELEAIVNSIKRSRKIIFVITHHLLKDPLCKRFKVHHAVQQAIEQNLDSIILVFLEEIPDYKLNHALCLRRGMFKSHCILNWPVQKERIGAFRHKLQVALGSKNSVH
Protocol: as §1

human TLR4 = target: T7, human TLR4 (Homo sapiens, UniProt O00206+Q9Y6Y9); experiment: TLR ligand screening: NF-κB SEAP reporter, agonist; type: cell-based; conditions: HEK293 cells expressing TLR4; guanosine 100 uM, NTR001 10 uM, inosine 100 uM; triplicate
T7 construct: expressed in transfected cells; host or cells: HEK293
Protocol: as §1

T3 sequence (O60603 21-784): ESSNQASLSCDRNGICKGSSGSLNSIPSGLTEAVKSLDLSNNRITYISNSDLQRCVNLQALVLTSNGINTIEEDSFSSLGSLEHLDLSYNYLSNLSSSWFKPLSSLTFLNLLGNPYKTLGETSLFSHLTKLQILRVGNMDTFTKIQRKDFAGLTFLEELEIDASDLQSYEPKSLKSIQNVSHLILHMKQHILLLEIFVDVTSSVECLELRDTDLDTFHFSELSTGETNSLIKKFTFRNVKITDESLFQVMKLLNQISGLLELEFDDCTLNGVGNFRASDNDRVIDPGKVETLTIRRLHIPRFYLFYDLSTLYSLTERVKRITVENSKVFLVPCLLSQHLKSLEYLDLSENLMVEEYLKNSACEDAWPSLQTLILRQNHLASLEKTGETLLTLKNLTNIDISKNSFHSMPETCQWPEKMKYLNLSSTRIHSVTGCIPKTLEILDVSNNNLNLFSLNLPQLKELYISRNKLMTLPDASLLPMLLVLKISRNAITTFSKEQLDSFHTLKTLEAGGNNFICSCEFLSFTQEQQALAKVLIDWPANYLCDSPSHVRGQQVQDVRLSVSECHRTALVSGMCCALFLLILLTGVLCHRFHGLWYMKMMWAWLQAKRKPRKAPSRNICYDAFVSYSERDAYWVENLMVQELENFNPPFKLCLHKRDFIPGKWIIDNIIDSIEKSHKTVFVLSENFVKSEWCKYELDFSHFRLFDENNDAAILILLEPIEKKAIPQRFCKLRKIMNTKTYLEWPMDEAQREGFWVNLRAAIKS
T7 sequence (O00206 24-839): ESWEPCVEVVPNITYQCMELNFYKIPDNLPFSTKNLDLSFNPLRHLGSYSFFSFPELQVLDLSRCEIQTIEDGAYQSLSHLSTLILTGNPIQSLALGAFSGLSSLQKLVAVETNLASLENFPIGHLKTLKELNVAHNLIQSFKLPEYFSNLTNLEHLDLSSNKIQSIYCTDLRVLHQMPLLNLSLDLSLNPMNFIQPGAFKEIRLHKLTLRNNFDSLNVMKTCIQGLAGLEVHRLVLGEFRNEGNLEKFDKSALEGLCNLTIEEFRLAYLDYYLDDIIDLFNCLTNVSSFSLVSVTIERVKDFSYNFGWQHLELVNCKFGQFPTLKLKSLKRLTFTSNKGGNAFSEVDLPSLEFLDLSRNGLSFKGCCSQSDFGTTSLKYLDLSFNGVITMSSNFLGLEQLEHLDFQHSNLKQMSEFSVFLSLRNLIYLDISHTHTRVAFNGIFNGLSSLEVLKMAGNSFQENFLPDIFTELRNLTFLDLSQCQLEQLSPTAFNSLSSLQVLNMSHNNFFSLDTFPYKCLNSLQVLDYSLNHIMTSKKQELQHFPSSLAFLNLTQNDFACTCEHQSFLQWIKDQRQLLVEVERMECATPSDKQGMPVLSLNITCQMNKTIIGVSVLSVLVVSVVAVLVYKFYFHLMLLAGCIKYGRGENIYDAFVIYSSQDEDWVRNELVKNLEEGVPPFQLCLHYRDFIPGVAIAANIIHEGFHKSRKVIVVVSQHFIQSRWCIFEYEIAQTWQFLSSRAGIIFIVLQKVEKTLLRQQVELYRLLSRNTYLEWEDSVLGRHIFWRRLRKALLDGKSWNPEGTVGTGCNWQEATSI
T7 sequence (Q9Y6Y9 17-160 limits assumed): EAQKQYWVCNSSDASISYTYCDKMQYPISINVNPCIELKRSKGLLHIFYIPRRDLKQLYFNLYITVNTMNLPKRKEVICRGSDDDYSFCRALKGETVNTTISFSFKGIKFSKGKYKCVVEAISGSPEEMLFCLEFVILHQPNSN
T4 sequence (O60602 21-858): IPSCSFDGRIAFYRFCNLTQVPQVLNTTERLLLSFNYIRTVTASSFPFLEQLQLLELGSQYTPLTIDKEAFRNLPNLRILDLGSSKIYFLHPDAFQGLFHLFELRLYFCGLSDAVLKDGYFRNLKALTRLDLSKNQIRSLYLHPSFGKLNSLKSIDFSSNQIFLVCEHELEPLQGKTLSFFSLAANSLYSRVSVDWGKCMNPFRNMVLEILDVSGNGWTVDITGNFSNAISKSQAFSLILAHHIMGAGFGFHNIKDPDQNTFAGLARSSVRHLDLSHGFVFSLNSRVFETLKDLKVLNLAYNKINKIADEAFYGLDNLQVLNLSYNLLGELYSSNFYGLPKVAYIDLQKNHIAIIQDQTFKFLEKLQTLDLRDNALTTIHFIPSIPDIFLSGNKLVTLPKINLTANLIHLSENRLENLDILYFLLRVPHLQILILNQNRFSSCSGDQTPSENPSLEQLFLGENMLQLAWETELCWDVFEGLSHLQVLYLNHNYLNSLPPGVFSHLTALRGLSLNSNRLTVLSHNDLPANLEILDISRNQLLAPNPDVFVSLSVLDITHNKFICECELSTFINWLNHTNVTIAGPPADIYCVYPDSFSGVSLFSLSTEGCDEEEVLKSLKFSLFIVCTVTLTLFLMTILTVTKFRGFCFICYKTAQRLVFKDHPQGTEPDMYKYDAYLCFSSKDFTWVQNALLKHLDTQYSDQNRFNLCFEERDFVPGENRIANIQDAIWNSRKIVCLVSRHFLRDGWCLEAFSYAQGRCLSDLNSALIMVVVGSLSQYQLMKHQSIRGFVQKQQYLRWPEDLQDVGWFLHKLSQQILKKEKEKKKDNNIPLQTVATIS

Compound | survival (B16 tumors) [%] | stimulatory effect on human TLR9 (NF-κB activation) (human TLR9) | stimulatory effect on human TLR8 (NF-κB activation) (human TLR8) | stimulatory effect on human TLR2 (NF-κB activation) (human TLR2) | stimulatory effect on human TLR5 (NF-κB activation) (human TLR5) | stimulatory effect on human TLR7 (NF-κB activation) (human TLR7) | stimulatory effect on human TLR3 (NF-κB activation) (human TLR3) | stimulatory effect on human TLR4 (NF-κB activation) (human TLR4)
O=P1(N(CCCl)CCCl)NCCCO1 (stereo not shown) [Cyclcophosphamide, Cyclophosphamide] | 30 | – | – | – | – | – | – | –
OC[C@H]1O[C@@H](n2cnc3c(O)ncnc32)[C@H](O)[C@@H]1O [Inosine] | – | do not directly exhibit a stimulatory effect | do not directly exhibit a stimulatory effect | do not directly exhibit a stimulatory effect | do not directly exhibit a stimulatory effect | do not directly exhibit a stimulatory effect | do not directly exhibit a stimulatory effect | do not directly exhibit a stimulatory effect
Nc1nc2c(ncn2[C@@H]2O[C@H](CO)[C@@H](O)[C@H]2O)c(=O)[nH]1 [Guansoine, guanosine] | – | – | – | significant stimulatory effect | – | – | – | significant stimulatory effect
